Test results as given in patent publication US20010049372A1, “Antiviral nucleoside analogues” (BioChem Pharma Inc., priority 1998, published 2001).
Where two headings read alike, the source gives them in different places.

Columns and labels:
[1] = Body weight gaining effect in mice; type: in vivo; conditions: intraperitoneally, mice (CDI, adult, male), 50 mg/kg/day for 5 days
[2] = Cellular toxicity by [3H]-thymidine uptake; type: cell-based; conditions: human
Protocol: (§1) The cellular toxicity of the compounds were assessed on various cells using [^3H]-thymidine uptake. Various cells, including Molt-4, HT1080, DU-145, HepG-2 and HSF, were plated at a concentration of 1-2×10^3 cells per well (96 well plates). After a 24 hr incubation period, 10-fold serial diluted compounds (b 10^−4 M to 10^−10 M) were added to the culture medium and the cells were further incubated for 72 hrs. [^3H]-thymidine was added during the final 18 hr incubation period. After incubation with the [^3H]-thymidine, the cells were washed once with PBS, treated with trypsin if the cells were adherent, and then resuspended in water (hypotonic lysing of cells). The cellular extract was applied directly to a Tomtec Harvester 96. Using this instrument the extracted DNA is adsorbed onto filters, washed and the incorporated [^3H]-thymidine is then counted. The 50% cytotoxic concentration (CC50) was determined by comparing the radioactive counts per minute of the samples in the presence of the compounds against the control. The cellular toxicity of the compounds was also tested by WST-1 staining through assessing proliferation of MT-2, H9, Jurkat, U937, and CBMCs. The established cell lines were cultured in RPMI medium in 96-well plates at a density of 5×10^4 cells/well while CBMCs were plated at a concentration of 0.5×10^6/well. A 10-fold serial diluted (10^−4-10^−7 M) compound was added at day zero. At day 4, the cells were passaged by changing half medium containing appropriately diluted compound. The cell activities were assessed at day 7 using the WST-1 reagent (Boehringer Mannheim) following the protocol provided by the supplier.
(§2) Cellular toxicity was assessed by [^3H]thymidine uptake (de Muys et al. 1999) and WST-1 staining. In the [^3H]thymidine uptake experiments, Molt-4, HT1080, DU-145, HepG2 and HSF, were plated at a concentration of 1-2×10^3 cells per well (96 well plates). PHA-stimulated PBMCs were cultured at a concentration of 4×10^4 cells per well. Following a 24 hr pre-incubation period, test compounds (10^−4 M to 10^−10 M) were added and the cells were incubated for an additional 72 hrs. [^3H]thymidine was added during the final 18 hr incubation period. The cells were then washed once with PBS, treated with trypsin if the cells were adherent, and resuspended in water (hypotonic lysing of cells). The cellular extract was applied directly to a Tomtec Harvester 96. The 50% cytotoxic concentration (CC50) was determined by comparing the radioactive counts per minute obtained from drug-tested samples to those obtained from the control (untreated) cells.

[3] = Cellular toxicity by WST-1 staining; type: cell-based; conditions: human, CBMCs, Table 4, day 7, read-out: CC50 (μM) WST-1 CBMC
Protocol: as §1
(§3) In the WST-1 staining experiments, cell lines were cultured in RPMI medium in 96-well plates at a density of 5×10^4 cells/well. CBMCs were plated at a concentration of 0.5×10^6/well. Compounds (10^−4-10^−7 M) were added at day zero. Cell viability was assessed on day 7 using the WST-1 reagent (Boehringer Mannheim) following the protocol provided by the supplier.

[4] = Preliminary pharmacokinetic study in male adult rats; type: in vivo; conditions: rat
Protocol: The bioavailability of the compounds were evaluated in male adult rats dosed intravenously through the tail vein (5 mg/kg) and orally (20 mg/kg). The plasma samples were collected at 2, 5, 15, 30, 60, 90, 120 and 240 minutes after intravenous dosing and 5, 15, 30, 60, 90, 120, 240 and 360 minutes after oral dosing.
Blood samples (1 ml) were collected from the rat tails into a vacutainer containing EDTA (3 ml) for both iv and po administrations. Plasma samples were prepared by centrifugation at 2000 ×g for 15 minutes at 4° C.
Plasma samples (diluted to 1 ml with water) were loaded onto the Abselut Nexus sorbent (# 1210-3100 ) and drawn through under low vacuum (approximately 5′′ Hg). One milliliter of deionized water was added to the sorbent and drawn through under vacuum. The extraction column was dried for 1 minute using a high vacuum (>10′′ Hg). One milliliter of methanol was added to the Abselut Nexus column and the eluent was collected at 1-2 ml/min. The eluent was evaporated to dryness using a Speed Vac, and the samples were reconstituted in 120 μl H2O; 100 μl was used for injection.

PBMCs = test: Cellular toxicity by [3H]-thymidine uptake; type: cell-based, human; conditions: Table 4, 72 hrs
Protocol: as §2

HT1080 = test: Cellular toxicity by [3H]-thymidine uptake; type: cell-based; conditions: Table 4, 72 hrs
Protocol: as §1, §2

Molt-4 = test: Cellular toxicity by [3H]-thymidine uptake; type: cell-based; conditions: Table 4, 72 hrs
Protocol: as §1, §2

DU-145 = test: Cellular toxicity by [3H]-thymidine uptake; type: cell-based; conditions: Table 4, 72 hrs
Protocol: as §1, §2

HepG-2 = test: Cellular toxicity by [3H]-thymidine uptake; type: cell-based; conditions: Table 4, 72 hrs
Protocol: as §1, §2

HSF = test: Cellular toxicity by [3H]-thymidine uptake; type: cell-based; conditions: Table 4, 72 hrs
Protocol: as §1, §2

[5] = Pharmacokinetic study in male and female rats (single dose iv or po); type: in vivo, rat; conditions: parameters of DAPD & DXG after administration of DAPD
Protocol: Compound A(−), DAPD, and DXG were administrated as a single dose, either intravenously through the jugular vein at 10 mg/kg or orally at 20, 125, 500, 1000 or 2000 mg/kg. All rats were fasted for 12 hours prior to po dosing treatment. The vehicle used for both iv and po administrations was 0.1% carboxymethylcellulose and 0.1% Tween 80 in distilled water, acidified to pH 3.15 with 1N HCl. Blood samples were taken from rats at the times shown in the schedule below for all oral dosing. From a total of 10 rats for each administration, seven time points were taken for the intravenous through the jugular vein dosing (2, 5, 15, 30, 60, 120 and 240 min) and for the oral dosing (5-360 min) at 20 mg/kg, whereas two additional time points at 480 and 1440 min were taken for the oral doses of 125-2000 mg/kg. As a result, each time point was in quadruplicate, except for the 1440 minute time point when blood samples were taken through the jugular vein from all the rats prior to being euthanized.
Blood samples (1 ml) were collected from the rat tails into a vacutainer containing EDTA (3 ml) for both iv and po administrations. Plasma samples were prepared by centrifugation at 2000×g for 15 minutes at 4° C.
Plasma samples (diluted to 1 ml with water) were loaded onto the Abselut Nexus sorbent (#1210-3100) and drawn through under low vacuum (approximately 5′′ Hg). One milliliter of deionized water was added to the sorbent and drawn through under vacuum. The extraction column was dried for 1 minute using a high vacuum (>10′′ Hg). One milliliter of methanol was added to the Abselut Nexus column and the eluent was collected at 1-2 ml/min. The eluent was evaporated to dryness using a Speed Vac, and the samples were reconstituted in 120 μl H2O; 100 μl was used for injection.

CBMCs = test: Cellular toxicity by WST-1 staining; type: cell-based; conditions: Table 4, day 7, read-out: CC50 (μM) WST-1 CBMC
Protocol: as §1, §3

HIV-1IIIB = test: Anti-HIV-1 antiviral assay with HIV-1IIIB in various cell types (RT activity); type: cell-based; conditions: HIV-1IIIB, MT-2 cells, determined by RT activity; read-out: EC50 (μM) ± S.D. in MT-2 cells
Protocol: ANTIVIRAL ASSAYS. The anti-HIV-1 activity of the compound A (−) were assessed by employing HIV-1IIIB in a variety of cell types as previously described (Gu et al., 1992, 1994, 1999; Rando et al., 1995; Salomon et al., 1994). Briefly, cells were incubated with virus at a multiplicity of infection (MOI) of 0.005 for T cell assays and an MOI of 0.5 for monocytic cell assays for 3 hrs. Unbound virus was then removed by washing the cells, followed by seeding the cells into a 96-well plate. The infected cells were cultured in the presence of a serial concentrations of the test compound for 5-7 days. The anti-HIV-1 efficacy was determined by testing for HIV-1 RT activity or p24 level in the cell culture supernatants. All assays were performed in duplicate. Zidovudine and/or lamivudine were used as controls in each experiment.
Activity of the compound A (−) against HIV-1 in various cells. Anti-HIV-1 activity of the compound A (−) were tested in different types of cells, including human peripheral […] cells (PBMCs), T-cell (MT-2 and MT-4) and monocytic cell (U937) lines. The compound A (−) had submicromolar EC50s against HIV-1IIIB in different types of cells tested (Table 2).

SMILES: Nc1nc(NC2CCC2)c2ncn([C@H]3CO[C@@H](CO)O3)c2n1 [Cmpd B (−), (−)-(2R,4R)-2-hydroxymethyl-4-(2′-amino-6′-cyclobutylamino-purine-9′-yl)-1,3-dioxolane]
- Mice (50 mg/kg/d): body weight gaining effect [1]: No
- CC50 at 72 h ([2]; DU-145 cells, Table 4, read-out: CC50 (μM) [^3H-]TTP incorporation in: U-145): 200 µM
- CC50 at 72 h ([2]; HT1080 cells, Table 4, read-out: CC50 (μM) [^3H-]TTP incorporation in: HT1080): > 250 µM
- CC50 at 72 h ([2]; HepG2 cells, Table 4, read-out: CC50 (μM) [^3H-]TTP incorporation in: HepG2): > 250 µM
- CC50 at 72 h ([2]; Molt-4 cells, Table 4, read-out: CC50 (μM) [^3H-]TTP incorporation in: Molt-4): > 250 µM
- CC50 at 7 days [3]: > 100 µM
- half-life ([4]; male, plasma, iv 5 mg/kg): 18.6 min
- AUC ([4]; male, plasma, iv 5 mg/kg, read-out: AUC): 5600 ng·h/mL
- Cmax ([4]; male, plasma, iv 5 mg/kg, read-out: Cmax): 13300 ng/mL
- half-life ([4]; male, plasma, oral 20 mg/kg): 72 min
- AUC ([4]; male, plasma, oral 20 mg/kg, read-out: AUC): 3080 ng·h/mL
- Cmax ([4]; male, plasma, oral 20 mg/kg, read-out: Cmax): 1120 ng/mL
- Oral BA (%) ([4]; oral 20 mg/kg): 13.75%
- CC50 (μM) [^3H-]TTP incorporation in: PBMC (PBMCs): 80/90

SMILES: Nc1nc(N)c2ncn([C@H]3CO[C@@H](CO)O3)c2n1 [DAPD, (−)-β-D -2,6-diaminopurine dioxolane]
- CC50 (HT1080; read-out: CC50 (μM) [^3H-]TTP incorporation in: HT1080): > 500 µM
- CC50 (Molt-4; read-out: CC50 (μM) [^3H-]TTP incorporation in: Molt-4): > 500 µM
- CC50 (DU-145; read-out: CC50 (μM) [^3H-]TTP incorporation in: U-145): > 500 µM
- CC50 (HepG-2; read-out: CC50 (μM) [^3H-]TTP incorporation in: HepG2): ≥ 500 µM
- CC50 (μM) [^3H-]TTP incorporation in: HSF (HSF): 500/350
- AUC ([5]; female rat, iv 10 mg/kg): 357.9 µg·min/mL
- Cmax ([5]; female rat, iv 10 mg/kg): 22100 ng/mL
- T1/2 ([5]; female rat, iv 10 mg/kg): 31.5 min
- AUC ([5]; female rat, po 20 mg/kg): 307.2 µg·min/mL
- Bioavailability (%) ([5]; female rat, po 20 mg/kg): 43%
- Cmax ([5]; female rat, po 20 mg/kg): 2500 ng/mL
- T1/2 ([5]; female rat, po 20 mg/kg): 31.3 min
- Tmax ([5]; female rat, po 20 mg/kg): 45 min
- AUC ([5]; male rat, iv 10 mg/kg): 271.2 µg·min/mL
- Cmax ([5]; male rat, iv 10 mg/kg): 16200 ng/mL
- T1/2 ([5]; male rat, iv 10 mg/kg): 36.2 min
- AUC ([5]; male rat, po 20 mg/kg): 196.5 µg·min/mL
- Bioavailability (%) ([5]; male rat, po 20 mg/kg): 36%
- Cmax ([5]; male rat, po 20 mg/kg): 1960 ng/mL
- T1/2 ([5]; male rat, po 20 mg/kg): 34 min
- Tmax ([5]; male rat, po 20 mg/kg): 35 min
- CC50 (CBMCs): > 100 µM
- AUC ([4]; oral 20 mg/kg): 1890 ng·h/mL
- Cmax ([4]; oral 20 mg/kg): 1040 ng/mL
- Oral BA (%) ([4]; oral 20 mg/kg): 7.42%
- T1/2 ([4]; oral 20 mg/kg): 46.2 min
- CC50 (PBMCs; read-out: CC50 (μM) [^3H-]TTP incorporation in: PBMC): > 500 µM

SMILES: Nc1nc2c(ncn2[C@H]2CO[C@@H](CO)O2)c(=O)[nH]1 [DXG, (−)-β-D -1,3-dioxolane guanine]
- EC50 (HIV-1IIIB): 0.065 ± 0.039 µM
- CC50 (μM) [^3H-]TTP incorporation in: HT1080 (HT1080): >500/250
- CC50 (μM) [^3H-]TTP incorporation in: Molt-4 (Molt-4): >500/250
- CC50 (μM) [^3H-]TTP incorporation in: U-145 (DU-145): >500/250
- CC50 (μM) [^3H-]TTP incorporation in: HepG2 (HepG-2): >500/250
- CC50 (HSF; read-out: CC50 (μM) [^3H-]TTP incorporation in: HSF): ≥ 500 µM
- CC50 (CBMCs): > 100 µM
- AUC ([4]; iv 5 mg/kg): 5150 ng·h/mL
- Cmax ([4]; iv 5 mg/kg): 29020 ng/mL
- T1/2 ([4]; iv 5 mg/kg): 37.2 min
- AUC ([4]; oral 20 mg/kg): 910 ng·h/mL
- Cmax ([4]; oral 20 mg/kg): 270 ng/mL
- Oral BA (%) ([4]; oral 20 mg/kg): 4.43%
- T1/2 ([4]; oral 20 mg/kg): 147 min
- CC50 (μM) [^3H-]TTP incorporation in: PBMC (PBMCs): >500/250
